Active and inactive are the calls of the source.

Consider 8 molecules from ChEMBL document CHEMBL1201862, “PubChem BioAssay data set” (2004).

Assay [1] addresses Sphingosine 1-phosphate receptor 2 (Homo sapiens, UniProt O95136). In words: Dose Response Cell Based Assay for Agonists of the S1P2 Receptor of Purchased Analogues. [Related pubchem assays: 729, 843, 854, 736 ]. The class given is functional.
The target of assay [2] is Cytochrome P450 2C19 (Homo sapiens, UniProt P33261). Briefly: qHTS Assay for Inhibitors and Substrates of Cytochrome P450 2C19. [Related pubchem assays: 410 ]. Type of assay: ADME. The settings on record: read-out: Potency.
Chain of Cytochrome P450 2C19 (P33261 whole entry): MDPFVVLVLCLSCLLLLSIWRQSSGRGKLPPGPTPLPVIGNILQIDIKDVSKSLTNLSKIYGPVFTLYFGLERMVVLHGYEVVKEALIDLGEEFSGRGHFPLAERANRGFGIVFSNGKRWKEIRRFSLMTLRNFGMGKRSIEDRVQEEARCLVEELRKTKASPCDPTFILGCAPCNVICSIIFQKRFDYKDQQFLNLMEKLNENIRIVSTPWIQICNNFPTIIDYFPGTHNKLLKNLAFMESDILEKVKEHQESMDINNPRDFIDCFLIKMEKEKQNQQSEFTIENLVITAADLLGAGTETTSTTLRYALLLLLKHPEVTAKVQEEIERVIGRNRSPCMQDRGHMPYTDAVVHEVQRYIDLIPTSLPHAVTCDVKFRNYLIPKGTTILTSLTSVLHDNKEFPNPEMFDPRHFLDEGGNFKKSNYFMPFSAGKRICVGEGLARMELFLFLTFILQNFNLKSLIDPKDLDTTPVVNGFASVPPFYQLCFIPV
The target in assay [3] is Cytochrome P450 2C9 (Homo sapiens, UniProt P11712). The settings on record: Potency.
Chain of Cytochrome P450 2C9 (P11712 whole entry): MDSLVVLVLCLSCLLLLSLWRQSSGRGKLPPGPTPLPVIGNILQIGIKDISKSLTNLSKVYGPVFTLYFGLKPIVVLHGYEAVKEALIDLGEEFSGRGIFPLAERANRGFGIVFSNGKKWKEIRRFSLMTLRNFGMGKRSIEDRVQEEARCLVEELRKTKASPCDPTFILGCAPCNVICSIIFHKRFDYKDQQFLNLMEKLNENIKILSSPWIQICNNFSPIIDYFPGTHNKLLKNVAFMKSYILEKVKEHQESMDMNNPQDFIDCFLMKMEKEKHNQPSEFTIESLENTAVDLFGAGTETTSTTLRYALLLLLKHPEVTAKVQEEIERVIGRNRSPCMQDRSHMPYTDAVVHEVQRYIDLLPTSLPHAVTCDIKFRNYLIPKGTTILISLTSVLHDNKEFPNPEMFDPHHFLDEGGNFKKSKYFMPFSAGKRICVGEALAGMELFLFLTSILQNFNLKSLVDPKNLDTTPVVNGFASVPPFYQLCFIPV
Assay [4] has as its target T1, Estrogen receptor beta (Homo sapiens, UniProt Q92731).
Assay [5] concerns the target T1, Estrogen receptor beta. Briefly: ERβ–SRC-3 coactivator interaction inhibitors, confirmation, orthogonal assay, biochemical, ELISA, streptavidin-HRP readout (AID 1060).
In assay [6] the target is DNA dC->dU-editing enzyme APOBEC-3A (Homo sapiens, UniProt P31941). In words: Dose Response confirmation of small molecule APOBEC3A DNA Deaminase Inhibitors via a fluorescence-based single-stranded DNA deaminase assay. [Related pubchem assays (depositor defined):AID493011, AID493024]. Type of assay: functional.
Chain of DNA dC->dU-editing enzyme APOBEC-3A (P31941 whole entry): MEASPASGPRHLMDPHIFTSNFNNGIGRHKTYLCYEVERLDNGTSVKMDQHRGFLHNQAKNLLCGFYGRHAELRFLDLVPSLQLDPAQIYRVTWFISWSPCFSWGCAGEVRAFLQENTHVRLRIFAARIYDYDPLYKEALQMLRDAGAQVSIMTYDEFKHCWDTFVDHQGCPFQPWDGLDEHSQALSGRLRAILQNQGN
Assay [7] concerns the target DNA dC->dU-editing enzyme APOBEC-3G (Homo sapiens, UniProt Q9HC16). The class given is functional.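 Further: Dose-response counterscreen measuring inhibition of APOBEC3G DNA deaminase activity, run while confirming APOBEC3A inhibitors.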
Assay [8] addresses Galanin receptor type 2 (Homo sapiens, UniProt O43603). In words: Dose Response cell-based high-throughput screening assay to identify antagonists of galanin receptor 2 (GALR2). [Related pubchem assays: 828, 866 ]. The class given is functional.
A short description of assay [9]: NIH-3T3 fibroblast cytotoxicity, dose response, cytotoxicity control, cell-based, fluorescence, Alamar Blue, secondary assay (AID 2327).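 Further: NIH-3T3 mouse fibroblasts cultured with fluconazole at 8 µg/mL.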 The class given is functional.
The nature of assay [10]: C. albicans growth with fluconazole, confirmation, fluorescence, retest (AID 2467). Type of assay: functional, cell-based.
In assay [11] the target is Voltage-gated inwardly rectifying potassium channel KCNH2 (Homo sapiens, UniProt Q12809). Briefly: hERG protection from proarrhythmic block, potency, dose response, cell-based, thallium flux (AID 2121). The class given is ADME.
Chain of Voltage-gated inwardly rectifying potassium channel KCNH2 (Q12809 whole entry): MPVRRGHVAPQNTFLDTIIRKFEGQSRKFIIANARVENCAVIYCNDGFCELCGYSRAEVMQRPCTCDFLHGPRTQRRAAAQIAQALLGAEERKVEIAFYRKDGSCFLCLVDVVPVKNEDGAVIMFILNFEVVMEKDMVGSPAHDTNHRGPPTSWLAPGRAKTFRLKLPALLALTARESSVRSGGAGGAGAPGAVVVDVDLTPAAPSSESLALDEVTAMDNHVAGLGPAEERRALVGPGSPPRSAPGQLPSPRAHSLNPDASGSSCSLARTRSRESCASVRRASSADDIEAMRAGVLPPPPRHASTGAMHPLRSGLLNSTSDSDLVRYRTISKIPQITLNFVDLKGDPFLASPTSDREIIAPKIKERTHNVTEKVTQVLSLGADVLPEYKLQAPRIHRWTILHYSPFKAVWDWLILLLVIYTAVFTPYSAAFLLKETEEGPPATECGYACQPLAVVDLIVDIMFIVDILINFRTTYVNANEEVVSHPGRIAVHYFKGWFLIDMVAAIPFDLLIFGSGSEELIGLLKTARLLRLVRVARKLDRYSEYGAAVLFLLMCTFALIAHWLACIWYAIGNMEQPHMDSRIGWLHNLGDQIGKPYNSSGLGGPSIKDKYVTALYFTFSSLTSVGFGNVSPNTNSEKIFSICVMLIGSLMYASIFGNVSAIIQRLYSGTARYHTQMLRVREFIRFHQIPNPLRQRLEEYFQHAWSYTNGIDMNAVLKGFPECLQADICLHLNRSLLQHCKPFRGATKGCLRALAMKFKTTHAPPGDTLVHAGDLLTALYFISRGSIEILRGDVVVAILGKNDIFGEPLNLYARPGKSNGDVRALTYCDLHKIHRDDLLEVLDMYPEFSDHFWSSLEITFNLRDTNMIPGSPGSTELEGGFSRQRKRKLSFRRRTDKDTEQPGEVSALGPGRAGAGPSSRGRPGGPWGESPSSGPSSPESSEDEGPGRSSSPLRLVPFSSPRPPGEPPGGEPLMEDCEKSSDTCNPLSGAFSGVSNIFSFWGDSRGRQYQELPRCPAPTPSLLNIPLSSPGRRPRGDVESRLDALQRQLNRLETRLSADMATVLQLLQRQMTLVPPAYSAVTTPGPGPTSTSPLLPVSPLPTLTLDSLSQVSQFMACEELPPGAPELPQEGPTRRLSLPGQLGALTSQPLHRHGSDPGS
Assay [12] addresses T2, NADPH oxidase 1 (Homo sapiens, UniProt Q9Y5S8).
T2 sequence (Q9Y5S8 whole entry): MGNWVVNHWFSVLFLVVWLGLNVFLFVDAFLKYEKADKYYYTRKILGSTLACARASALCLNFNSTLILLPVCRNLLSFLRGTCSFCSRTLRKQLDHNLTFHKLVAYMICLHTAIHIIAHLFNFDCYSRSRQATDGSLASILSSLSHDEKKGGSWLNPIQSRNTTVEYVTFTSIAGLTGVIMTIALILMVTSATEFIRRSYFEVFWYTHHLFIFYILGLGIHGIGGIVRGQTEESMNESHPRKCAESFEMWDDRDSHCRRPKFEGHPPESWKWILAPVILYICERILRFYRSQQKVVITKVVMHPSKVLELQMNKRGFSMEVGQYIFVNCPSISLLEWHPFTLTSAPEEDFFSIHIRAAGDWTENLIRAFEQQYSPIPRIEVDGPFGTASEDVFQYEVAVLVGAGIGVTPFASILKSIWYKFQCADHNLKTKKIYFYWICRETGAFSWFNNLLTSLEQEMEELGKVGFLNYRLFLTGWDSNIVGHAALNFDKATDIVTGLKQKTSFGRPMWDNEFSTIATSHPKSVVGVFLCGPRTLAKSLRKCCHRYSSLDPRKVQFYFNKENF
The class given is functional, cell-based.

The target of assay [13] is T2, NADPH oxidase 1. Briefly: Luminescence-based cell-based dose response assay to identify inhibitors of NADPH oxidase 1 (NOX1). Type of assay: functional.
For assay [14], the target named is T3, Rac GTPase-activating protein 1 (Homo sapiens, UniProt Q9H0H5).
T3 sequence (Q9H0H5 whole entry): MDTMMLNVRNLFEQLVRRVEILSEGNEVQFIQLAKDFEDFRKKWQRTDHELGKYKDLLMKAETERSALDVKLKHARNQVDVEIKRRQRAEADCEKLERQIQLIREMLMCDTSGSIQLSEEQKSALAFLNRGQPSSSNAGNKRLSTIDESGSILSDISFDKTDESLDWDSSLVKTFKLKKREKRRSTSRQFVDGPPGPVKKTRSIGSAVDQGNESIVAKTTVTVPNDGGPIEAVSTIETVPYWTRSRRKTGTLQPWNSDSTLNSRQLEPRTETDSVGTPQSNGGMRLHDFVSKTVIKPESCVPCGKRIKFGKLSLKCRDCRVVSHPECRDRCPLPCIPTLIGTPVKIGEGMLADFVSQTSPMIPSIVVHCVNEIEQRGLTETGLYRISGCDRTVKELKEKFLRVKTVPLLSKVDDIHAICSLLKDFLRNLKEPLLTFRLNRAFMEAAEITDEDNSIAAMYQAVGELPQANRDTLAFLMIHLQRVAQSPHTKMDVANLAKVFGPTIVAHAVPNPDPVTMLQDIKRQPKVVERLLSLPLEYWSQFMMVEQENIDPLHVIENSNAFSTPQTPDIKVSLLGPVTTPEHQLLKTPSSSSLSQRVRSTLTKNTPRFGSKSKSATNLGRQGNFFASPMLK
Briefly: MgcRacGAP GTPase-activating activity inhibitors, confirmation, biochemical, ADP Hunter fluorescence, primary and confirmatory (AID 624330). The class given is functional.

The nature of assay [15]: Luminescent dose response cell-based high throughput screening assay for inhibitors of the Janus kinase 2 mutant JAK2V617F. [Related pubchem assays: 1446 (Primary screen.), 1521 (Confirmation assay.), 1486 (Counter screen.)]. Type of assay: functional.
A short description of assay [16]: THP-1 cell cytotoxicity, dose response, cytotoxicity control for non-replicating M. tuberculosis project (AID 489025). The class given is functional.
Assay [17] in a line: HepG2 cell cytotoxicity, dose response, cytotoxicity control for non-replicating M. tuberculosis project (AID 489018). Type of assay: functional. The settings on record: Mycobacterium tuberculosis.
Assay [18] is described as follows: Vero E6 cell cytotoxicity, dose response, cytotoxicity control for non-replicating M. tuberculosis project, secondary assay (AID 492998). The class given is functional, VeroE6. The settings on record: Vero C1008.
For assay [19], the target named is T4, Heat shock factor protein 1 (Mus musculus, UniProt P38532).
T4 sequence (P38532 whole entry): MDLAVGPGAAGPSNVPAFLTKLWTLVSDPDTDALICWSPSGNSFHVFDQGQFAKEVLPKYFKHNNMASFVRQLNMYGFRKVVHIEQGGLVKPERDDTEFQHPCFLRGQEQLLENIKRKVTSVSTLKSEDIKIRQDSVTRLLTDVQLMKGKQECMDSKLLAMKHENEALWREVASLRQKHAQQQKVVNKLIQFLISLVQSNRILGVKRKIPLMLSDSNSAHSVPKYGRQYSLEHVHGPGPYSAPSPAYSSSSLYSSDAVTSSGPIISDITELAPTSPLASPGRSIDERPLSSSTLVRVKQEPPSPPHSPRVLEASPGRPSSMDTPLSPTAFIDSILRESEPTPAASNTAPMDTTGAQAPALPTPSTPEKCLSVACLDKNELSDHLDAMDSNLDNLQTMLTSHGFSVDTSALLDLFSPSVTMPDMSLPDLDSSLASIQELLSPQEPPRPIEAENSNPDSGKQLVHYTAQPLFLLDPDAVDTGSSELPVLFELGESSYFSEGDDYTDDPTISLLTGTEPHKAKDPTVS
Briefly: HSF1 potentiators in luciferase reporter cells, confirmation, cell-based, NIH3T3, luminescence, dose retest (AID 435004).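 Further: stress induced by proteasome inhibitor MG132 added 30 min after compound; luciferase reporter driven by HSF1 response element in NIH3T3 cells; actives raise luminescence as potentiators of the MG132 stress response.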 Type of assay: functional.

A short description of assay [20]: cells. Type of assay: functional.
Assay [21] concerns the target T5, Replicative DNA helicase DnaB (Mycobacterium tuberculosis, UniProt P9WMR3).
T5 sequence (P9WMR3 whole entry): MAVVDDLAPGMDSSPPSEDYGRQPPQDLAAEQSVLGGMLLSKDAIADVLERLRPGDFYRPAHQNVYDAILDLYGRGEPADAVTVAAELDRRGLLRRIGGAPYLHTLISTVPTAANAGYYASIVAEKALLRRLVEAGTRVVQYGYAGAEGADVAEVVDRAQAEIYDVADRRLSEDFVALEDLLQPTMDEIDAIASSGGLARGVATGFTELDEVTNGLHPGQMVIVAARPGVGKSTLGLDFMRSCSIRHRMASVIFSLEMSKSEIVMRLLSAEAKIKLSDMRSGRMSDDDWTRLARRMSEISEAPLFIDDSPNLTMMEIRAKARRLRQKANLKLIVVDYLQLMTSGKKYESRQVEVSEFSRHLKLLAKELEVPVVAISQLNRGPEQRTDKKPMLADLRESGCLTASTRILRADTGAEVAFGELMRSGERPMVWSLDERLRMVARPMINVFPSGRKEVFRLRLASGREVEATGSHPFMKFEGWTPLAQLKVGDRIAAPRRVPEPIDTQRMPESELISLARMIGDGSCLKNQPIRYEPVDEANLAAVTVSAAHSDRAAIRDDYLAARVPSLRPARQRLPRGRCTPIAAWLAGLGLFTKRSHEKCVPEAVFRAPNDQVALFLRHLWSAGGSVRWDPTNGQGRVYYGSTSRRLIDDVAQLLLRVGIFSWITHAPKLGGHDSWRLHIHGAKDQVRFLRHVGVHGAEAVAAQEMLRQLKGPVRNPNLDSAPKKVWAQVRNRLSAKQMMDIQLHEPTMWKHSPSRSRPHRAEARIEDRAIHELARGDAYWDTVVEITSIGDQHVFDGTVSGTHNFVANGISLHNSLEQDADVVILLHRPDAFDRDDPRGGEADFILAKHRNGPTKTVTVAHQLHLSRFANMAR
Briefly: DnaB intein splicing inhibitors, dose response, biochemical, cell-free fluorescence (AID 449749). Type of assay: functional.

For assay [22], the target named is T6, Protein RecA (Mycobacterium tuberculosis, UniProt P9WHJ3).
T6 sequence (P9WHJ3 whole entry): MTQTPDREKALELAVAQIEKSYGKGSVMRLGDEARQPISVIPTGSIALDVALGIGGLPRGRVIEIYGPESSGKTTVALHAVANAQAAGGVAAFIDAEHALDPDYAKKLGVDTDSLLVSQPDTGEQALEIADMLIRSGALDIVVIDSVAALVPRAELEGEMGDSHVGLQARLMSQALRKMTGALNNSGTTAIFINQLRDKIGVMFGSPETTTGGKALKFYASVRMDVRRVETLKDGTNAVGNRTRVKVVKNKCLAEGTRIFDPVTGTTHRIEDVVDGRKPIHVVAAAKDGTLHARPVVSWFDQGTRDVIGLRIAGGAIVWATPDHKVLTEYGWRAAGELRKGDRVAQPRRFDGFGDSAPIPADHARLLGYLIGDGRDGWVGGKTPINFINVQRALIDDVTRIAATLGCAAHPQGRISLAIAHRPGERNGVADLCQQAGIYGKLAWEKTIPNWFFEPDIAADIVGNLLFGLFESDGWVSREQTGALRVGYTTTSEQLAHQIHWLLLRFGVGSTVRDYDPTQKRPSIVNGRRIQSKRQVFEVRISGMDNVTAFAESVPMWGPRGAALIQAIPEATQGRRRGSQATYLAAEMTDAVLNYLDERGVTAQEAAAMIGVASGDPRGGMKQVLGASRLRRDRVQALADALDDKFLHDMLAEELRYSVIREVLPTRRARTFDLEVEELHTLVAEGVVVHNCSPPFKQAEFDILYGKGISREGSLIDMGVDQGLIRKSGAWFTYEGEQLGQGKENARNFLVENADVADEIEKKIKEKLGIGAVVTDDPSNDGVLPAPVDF
In words: Fluorescence Cell-Free Homogeneous Dose Retest to Identify Inhibitors of RecA-Intein Splicing Activity. [Related pubchem assays (depositor defined):AID2097, AID2223, AID489010, AID492950]. Type of assay: functional.

The nature of assay [23]: Fluorescence-based cell-based high throughput dose response assay for inhibitors of the interaction of nucleotide-binding oligomerization domain containing 2 (NOD2) and the receptor-interacting serine-threonine kinase 2 (RIPK2). The settings on record: Homo sapiens. The class given is functional.
Assay [24] deals with Paired box protein Pax-8 (Homo sapiens, UniProt Q06710). In words: inhibitors of PAX8-driven TPO luciferase reporter, dose response, RMG-I cells, cherry-pick (AID 687027).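 Further: luciferase reporter driven by Pax8 target thyroperoxidase promoter measured by SteadyGlo luminescence.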 Type of assay: functional, cell-based.
Chain of Paired box protein Pax-8 (Q06710 whole entry): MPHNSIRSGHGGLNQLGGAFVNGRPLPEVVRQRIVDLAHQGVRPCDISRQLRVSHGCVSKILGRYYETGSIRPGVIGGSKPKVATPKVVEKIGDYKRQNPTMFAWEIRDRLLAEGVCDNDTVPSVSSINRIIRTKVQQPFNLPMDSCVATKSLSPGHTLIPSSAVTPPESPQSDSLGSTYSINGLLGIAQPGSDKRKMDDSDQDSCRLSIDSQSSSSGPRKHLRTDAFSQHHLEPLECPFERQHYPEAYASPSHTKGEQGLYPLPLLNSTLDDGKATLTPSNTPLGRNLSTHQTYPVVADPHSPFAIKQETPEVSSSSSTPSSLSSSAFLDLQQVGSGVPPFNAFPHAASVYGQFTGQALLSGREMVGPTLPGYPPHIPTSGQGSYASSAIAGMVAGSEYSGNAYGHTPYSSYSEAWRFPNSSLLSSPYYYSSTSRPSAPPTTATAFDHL
Assay [25] is described as follows: non-specific cell cytotoxicity, dose response, cytotoxicity control for PAX8 inhibitor project, plate reader, dry powder samples (AID 743021). Type of assay: functional, cell-based.
Assay [26] has as its system Danio rerio. Briefly: In Vivo Angiogenesis Dose-Response Confirmation. [Related pubchem assays: 732 (Assay preceding this confirmatory assay.)]. The class given is functional, organism-based.

T1 sequence (Q92731 whole entry): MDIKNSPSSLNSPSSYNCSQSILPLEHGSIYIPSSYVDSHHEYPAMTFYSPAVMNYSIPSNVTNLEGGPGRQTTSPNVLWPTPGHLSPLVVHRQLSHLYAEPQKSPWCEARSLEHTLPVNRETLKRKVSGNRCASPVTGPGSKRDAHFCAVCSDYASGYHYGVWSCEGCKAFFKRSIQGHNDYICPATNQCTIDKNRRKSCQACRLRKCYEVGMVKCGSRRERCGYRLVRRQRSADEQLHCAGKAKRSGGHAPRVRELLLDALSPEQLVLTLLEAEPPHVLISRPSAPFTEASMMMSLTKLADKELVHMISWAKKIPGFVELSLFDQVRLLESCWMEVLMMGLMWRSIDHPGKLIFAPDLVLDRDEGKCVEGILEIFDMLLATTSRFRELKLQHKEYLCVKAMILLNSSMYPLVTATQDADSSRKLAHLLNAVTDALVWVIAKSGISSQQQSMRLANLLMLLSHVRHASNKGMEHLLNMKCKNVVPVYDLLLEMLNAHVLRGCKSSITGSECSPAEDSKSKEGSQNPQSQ
Chain of Sphingosine 1-phosphate receptor 2 (O95136 whole entry): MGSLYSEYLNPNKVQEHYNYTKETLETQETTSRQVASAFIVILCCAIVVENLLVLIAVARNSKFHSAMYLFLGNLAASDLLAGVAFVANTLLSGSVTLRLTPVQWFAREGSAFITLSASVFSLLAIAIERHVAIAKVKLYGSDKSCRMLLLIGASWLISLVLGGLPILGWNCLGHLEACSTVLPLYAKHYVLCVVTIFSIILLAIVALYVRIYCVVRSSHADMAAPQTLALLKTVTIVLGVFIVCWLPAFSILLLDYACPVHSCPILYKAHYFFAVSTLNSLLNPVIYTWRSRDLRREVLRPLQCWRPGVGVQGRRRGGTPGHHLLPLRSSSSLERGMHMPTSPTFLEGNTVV
Chain of DNA dC->dU-editing enzyme APOBEC-3G (Q9HC16 whole entry): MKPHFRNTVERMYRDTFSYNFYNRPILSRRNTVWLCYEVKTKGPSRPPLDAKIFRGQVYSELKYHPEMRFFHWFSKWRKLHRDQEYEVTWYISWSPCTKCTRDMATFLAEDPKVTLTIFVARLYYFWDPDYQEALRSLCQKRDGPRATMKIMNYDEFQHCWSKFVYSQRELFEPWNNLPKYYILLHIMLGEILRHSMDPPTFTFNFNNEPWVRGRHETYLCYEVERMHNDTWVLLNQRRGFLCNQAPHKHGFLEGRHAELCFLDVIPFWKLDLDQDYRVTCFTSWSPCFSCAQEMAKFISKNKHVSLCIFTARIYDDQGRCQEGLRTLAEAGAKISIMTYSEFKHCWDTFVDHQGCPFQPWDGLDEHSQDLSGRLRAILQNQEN
Chain of Galanin receptor type 2 (O43603 whole entry): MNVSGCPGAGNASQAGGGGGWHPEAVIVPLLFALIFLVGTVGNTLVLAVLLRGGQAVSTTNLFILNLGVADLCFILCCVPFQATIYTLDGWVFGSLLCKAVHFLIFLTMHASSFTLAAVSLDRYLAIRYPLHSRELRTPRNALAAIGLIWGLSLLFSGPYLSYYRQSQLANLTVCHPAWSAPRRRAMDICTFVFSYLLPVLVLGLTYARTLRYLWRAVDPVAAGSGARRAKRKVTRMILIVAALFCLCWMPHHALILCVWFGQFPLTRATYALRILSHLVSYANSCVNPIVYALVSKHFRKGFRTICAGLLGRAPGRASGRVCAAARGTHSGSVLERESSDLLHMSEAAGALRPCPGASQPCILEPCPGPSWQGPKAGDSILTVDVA

As for `Cc1sc2ncn(CC(=O)c3cc(C)n(Cc4ccccc4)c3C)c(=O)c2c1C`, in assay [1], the EC50 is given as > 30 µM (not active).
On to `CC(=O)[C@H]1[C@H]2[C@H](C(=O)[C@@H]3OC[C@H]2O3)[C@@H]2c3ccccc3C=CN12`, for which the AC50 in [2] and in [3] was 31.6 µM (inconclusive) each time.
On to `O=C(Cc1cccs1)Nc1nnc(Cc2ccccc2)s1`, for which the IC50 in assay [4] was 1.7 µM (active); in assay [5], 14.4 µM (not active); in [6], 12 µM (active); in assay [7] it was 25.3 µM (active).
As to `O=C(/C=C/c1ccc(Cl)cc1)NC(=S)Nc1ccc(NC(=O)c2ccco2)cc1`, in [8], the IC50 is 6.76 µM (active).
As to `O=C(Nc1nc(=O)c2ccccc2s1)c1ccc(Cl)cc1`, the EC50 was > 150 µM (inactive) in assay [9], > 38 µM (not active) in assay [10] and 0.84 µM (active) in [11].
Turning to `COc1ccc(NC(=O)Nc2ccc(N(C)C)cc2)cc1`, the IC50 in assay [5] is 14.4 µM (not active); in [12] it was 0.432 µM (active); in assay [13], 0.156 µM (active); in assay [14], 23.5 µM (active).
With `Cc1nc2c(=O)n(C)c(=O)n(C)c2nc1Cl`, the IC50 in assay [15] was 1.37 µM (active); in assay [20], 6.22 µM (active); in [23], 4.73 µM (active). Further, the figures for the CC50 in assay [16], in assay [17] and in assay [18] were 12.1 µM (active), 10.6 µM (active) and 7.41 µM (active), respectively. The EC50 was 14.3 µM (active) in assay [19] and 8.48 µM (active) in assay [22]. The results for the AC50 in assay [21], in [24] and in assay [25] were 17.3 µM (active), 8.88 µM (active) and 32.9 µM (active), respectively.
As for `O=C1Nc2ccc(F)cc2/C1=C1/Nc2ccc(Br)cc2C1=O`, the IC50 in assay [26] is 0.35 µM (not active).
